This experiment concerns the target T1, UGT1A10 (Homo sapiens, UniProt Q9HAW8).
T1 sequence (Q9HAW8 26-530): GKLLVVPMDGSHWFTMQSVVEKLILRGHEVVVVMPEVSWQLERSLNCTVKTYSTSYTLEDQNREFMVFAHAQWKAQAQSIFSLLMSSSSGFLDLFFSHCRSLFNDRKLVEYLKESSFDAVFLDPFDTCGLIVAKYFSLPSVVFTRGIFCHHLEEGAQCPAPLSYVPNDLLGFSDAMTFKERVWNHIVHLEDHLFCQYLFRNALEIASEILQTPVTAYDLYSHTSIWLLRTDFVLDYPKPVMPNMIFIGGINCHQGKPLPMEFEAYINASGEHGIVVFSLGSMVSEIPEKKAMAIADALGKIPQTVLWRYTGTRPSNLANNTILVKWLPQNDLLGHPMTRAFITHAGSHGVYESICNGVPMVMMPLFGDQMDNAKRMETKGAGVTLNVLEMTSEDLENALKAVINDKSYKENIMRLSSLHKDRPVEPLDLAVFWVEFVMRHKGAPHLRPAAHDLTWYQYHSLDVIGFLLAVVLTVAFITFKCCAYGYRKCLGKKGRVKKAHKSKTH
The experiment is described as follows: Inhibition of recombinant UGT1A10 activity (4-MU glucuronidation). The method, then: A panel of recombinant human UGT supersomes (UGT1A1, UGT1A3, UGT1A4, UGT1A6, UGT1A7, UGT1A8, UGT1A9, UGT1A10, UGT2B4, UGT2B7, UGT2B15, and UGT2B17) expressed in baculovirus-infected insect cells were purchased from BD Gentest Corp. (Woburn, MA, USA).
4-MU, a nonselective substrate of UGTs, was used as probe substrate for all UGTs except UGT1A4. Incubations with each individual enzyme were conducted using conditions previously described. There was a 5 min preincubation step at 37°C before the reaction was started by addition of UDPGA. The incubation mixtures were then centrifuged at 20,500 ×g for 15 min to obtain the supernatant. Aliquots (20 μL) were then analyzed by HPLC. The HPLC system (SHIMADZU, Kyoto, Japan) consisted of an SCL-10A system controller, two LC-10AT pumps, a SIL-10A auto injector, and a SPD-10AVP UV detector. Chromatographic separation was achieved using a Kromasil ODS column (4.6 × 150 mm I.D., 5 μm particle size) at a flow rate of 1 mL/min and UV detection at 316 nm. The mobile phase consisted of 10 mM KH2PO4, pH 2.7 (A) and acetonitrile (B). The following gradient was applied at a flow rate of 1 mL/min: 0–4 min 80% A and 20% B, 4.1–8 min 50% A and 50% B, 8.1–12 min, 30% A and 70% B. All experiments were performed in two independent experiments in duplicate.
A typical incubation mixture contained recombinant human UGTs, 5 mM MgCl2, 5 mM UDPGA, 50 μg/mg protein alamethicin, 50 mM Tris-HCl buffer (pH 7.4), and various probe substrates of UGTs in the absence or presence of different concentrations of inhibitors. […] The final concentration of DMSO in the incubation system was 1% (v/v). […]
Inhibition data from experiments were graphically represented by Dixon plots. K i values were calculated by nonlinear regression using the equations for competitive inhibition (1), noncompetitive inhibition (2), or mixed inhibition (3), [22] […] The type of inhibition was determined from the enzyme inhibition models. Goodness of fit to kinetic and inhibition models was assessed from the F statistic, r ^2 values, parameter standard error estimates, and 95% confidence intervals. […]
`COc1ccc(-c2oc3c(CC=C(C)C)c(O[C@@H]4O[C@H](CO)[C@@H](O)[C@H](O)[C@H]4O)cc(O)c3c(=O)c2O[C@@H]2O[C@@H](C)[C@H](O)[C@@H](O)[C@H]2O)cc1` [Icariin]: the IC50 is above 100 µM. As for `COc1ccc(-c2oc3c(CC=C(C)C)c(O[C@@H]4O[C@H](CO)[C@@H](O)[C@H](O)[C@H]4O)cc(O)c3c(=O)c2O)cc1` [Icariside I], the IC50 is above 100 µM. With `COc1ccc(-c2oc3c(CC=C(C)C)c(O)cc(O)c3c(=O)c2O)cc1` [Icaritin] the figure was above 100 µM.

As a reminder, the IC50 is the point on the concentration scale where inhibition reaches its midpoint.

The values above are taken from PMC3479967 (Evidence-based Complementary and Alternative Medicine : eCAM, 2012).
